In data set [1] the test system is fibroblasts (NIH/3T3 cells). Put plainly: cells. The note with it: NIH/3T3, 24 h, neutral red uptake. The procedure: (§1) Finally, control experiments with non-treated cells were performed.
The effect of the compounds on the viability of murine 3T3 fibroblasts was estimated using NRU assay. After the incubation time (24 h) cells, media were removed, then to each well we added 100 µL of medium containing neutral red (50 µg/mL). […] The plates were shaken for 10 min at room temperature. Then, the absorption at 540 nm was measured using a microplate reader (Biosan). The results were calculated for each sample concentration as a percentage of medium control. The values are presented as mean ± standard deviation of three independent experiments.

The subject of another data set is IL-6. Put plainly: IL-6 ELISA in supernatant of LPS-stimulated HaCaT cells. It counts as cell-based, human. As to conditions: 12 h pretreatment then LPS 12 h. On the procedure:
HaCaT cells were seeded in a 24-well plate at a density of 5 × 10^4 cells/well and maintained in DMEM high glucose with 10% FBS until an 80% confluent monolayer was reached. […] Control experiments with LPS-treated cells only were conducted. Controls with cells treated with neither compounds nor LPS were also performed. After that, the cell culture supernatant was collected, and the IL-6 cytokine was measured using an ELISA kit.
In general terms: ELISA stands for enzyme-linked immunosorbent assay.

For data set [2] the following is noted: TG, air atmosphere, 10 °C·min^−1.
Data set [3] in a line: Solubility in water, HPLC of saturated solutions. As to conditions: 25 °C; g of compound per dm^3. On the procedure:
Then, the obtained saturated solutions were diluted 100 times and analyzed. […] A mixture of 50% acetonitrile and 50% water was used as the mobile phase. The flow rate was 1 cm^3·min^−1. The column temperature was 30 °C. A Luna® Omega 3 µm Polar C18 100 Å column with dimensions of 150 × 4.6 mm was used. The injection volume for these samples was 50 mm^3. Each measurement was performed in triplicate, and the results were averaged.

Data set [4] has as its system human keratinocytes (HaCaT cells). Put plainly: MTT viability assay. As to conditions: for Viability of HaCaT after 48 h Treatment with 0.4 mM IL or SA: calculated as percentage of medium control, in %; for IC50: HaCaT, 24 h, MTT. On the procedure: as §1
We applied an assay based on the reduction of methyl thiazol tetrazolium bromide (MTT) to assess the effect of the compounds on the viability of HaCaT cells. […] After that, the cells were lysed with a solution of DMSO:ethanol (1:1 v/v). The absorbance of the reduced formazan dye product was read at 560 nm in a microplate reader (Biosan). The results were calculated for each sample concentration as a percentage of medium control. The values are presented as mean ± standard deviation of three independent experiments.

The nature of data set [5]: Solubility in typical solvents, modified Vogel method. As to conditions: 25 °C; for Solubility in Water (63.1): ET(30) in parentheses.
Excerpt: For this purpose, dimethyl sulfoxide, ethanol, chloroform, ethyl acetate, diethyl ether, toluene, and n-hexane were used as solvents.
The mark [6] stands for this setting: the two tested concentrations (1 and 10 µM).

Consider seven compounds from PMC8746858 (Molecules, 2021).

Like-named read-outs stand apart in the source and are kept apart here.

On to `CCOC(=O)[C@@H](N)CC(C)C.O=C(O)c1ccccc1O` [[LeuOEt][SA], L-leucine ethyl ester salicylate], for which the IC50 (in general, the concentration at which inhibition is half-maximal) was 894 ± 12 µg/mL in data set [1] and about 3 mM in data set [1] (read-out: IC50 (in mM)). In addition, the “Level of IL-6 in LPS-stimulated HaCaT” value with IL-6 (1 µM) was “no effect or negligible inhibition of the IL-6 production”.

Regarding `CCOC(=O)[C@@H](N)Cc1ccccc1.O=C(O)c1ccccc1O` [[PheOEt][SA], L-phenylalanine ethyl ester salicylate], the “Tonset, the onset of the thermal degradation” value (“Tonset, the onset” for short) in data set [2] was 181.1 °C. Also, the “Solubility in Water at 25 °C” value in data set [3] is given as 9.732 ± 0.010 g·dm^−3. Moreover, in data set [4], the “Viability of HaCaT after 48 h Treatment with 0.4 mM IL or SA” value (“Viability of HaCaT after 48 h Treatment” below) is 105 ± 4 and the IC50 turned out to be 2.2 ± 0.15 mg/mL. In addition, the half-maximal inhibitory concentration (IC50) in data set [4] (read-out: IC50 (in mM)) is about 6.6 mM. Further, in data set [1], the half-maximal inhibitory concentration (IC50) was 1062 ± 15 µg/mL. Besides, the concentration for half-maximal inhibition (IC50) in data set [1] (read-out: IC50 (in mM)) is about 3.2 mM. In addition, in data set [5], the “Solubility in Chloroform (39.1)” value was “+ (soluble >100 mg·cm^−3)”, the “Solubility in DMSO (45.1)” value was “+ (soluble >100 mg·cm^−3)”, the “Solubility in Diethyl ether (34.5)” value was “+ (soluble >100 mg·cm^−3)” and the “Solubility in Ethanol (51.9)” value is given as “+/− (partially soluble 33–100 mg·cm^−3)”. In addition, in data set [5], the “Solubility in Ethyl Acetate (38.1)” value is on record as “+/− (partially soluble 33–100 mg·cm^−3)”, the “Solubility in Toluene (33.9)” value is listed as “− (insoluble < 33 mg·cm^−3)”, the “Solubility in n-Hexane (31.0)” value is reported as “− (insoluble < 33 mg·cm^−3)” and the “Solubility in Water (63.1)” value is “− (insoluble < 33 mg·cm^−3)”. Moreover, the “Level of IL-6 in LPS-stimulated HaCaT” value in the data set on IL-6 (setting [6]) is recorded as “comparable to those produced by 1 µM SA”.

On to `CCCOC(=O)[C@@H](N)Cc1ccccc1.O=C(O)c1ccccc1O` [[PheOPr][SA], L-phenylalanine propyl ester salicylate], for which, in data set [2], the “Tonset, the onset” value turned out to be 185.0 °C. The “Solubility in Water at 25 °C” value in data set [3] is 1.143 ± 0.001 g·dm^−3. In data set [4], the “Viability of HaCaT after 48 h Treatment” value is given as 93 ± 4 and the IC50 is on record as 0.65 ± 0.1 mg/mL. For the same compound, the IC50 in data set [4] (read-out: IC50 (in mM)) was about 1.9 mM. In data set [1], this compound yielded an IC50 of 662 ± 9 µg/mL. Also, the IC50 in data set [1] (read-out: IC50 (in mM)) was about 1.9 mM. Moreover, in data set [5], the “Solubility in Chloroform (39.1)” value is “+ (soluble >100 mg·cm^−3)”, the “Solubility in DMSO (45.1)” value is reported as “+ (soluble >100 mg·cm^−3)”, the “Solubility in Diethyl ether (34.5)” value was “+ (soluble >100 mg·cm^−3)” and the “Solubility in Ethanol (51.9)” value was “+/− (partially soluble 33–100 mg·cm^−3)”. In addition, in data set [5], the “Solubility in Ethyl Acetate (38.1)” value was “+/− (partially soluble 33–100 mg·cm^−3)”, the “Solubility in Toluene (33.9)” value is recorded as “− (insoluble < 33 mg·cm^−3)”, the “Solubility in n-Hexane (31.0)” value is on record as “− (insoluble < 33 mg·cm^−3)” and the “Solubility in Water (63.1)” value was “− (insoluble < 33 mg·cm^−3)”. The “Level of IL-6 in LPS-stimulated HaCaT” value in the data set on IL-6 (1 µM) was “completely protected from inflammation”. Besides, the “Level of IL-6 in LPS-stimulated HaCaT” value in the data set on IL-6 (10 μM) is “no effect or negligible inhibition of the IL-6 production”.

With `CCCCOC(=O)[C@@H](N)C(C)C.O=C(O)c1ccccc1O` [[ValOBu][SA], L-valine butyl ester salicylate], the “Tonset, the onset” value in data set [2] came to 171.8 °C. The “Solubility in Water at 25 °C” value in data set [3] is reported as 14.490 ± 0.014 g·dm^−3. Besides, in data set [4], the “Viability of HaCaT after 48 h Treatment” value is 74 ± 1 and the IC50 was found to be 0.6 ± 0.2 mg/mL. Besides, the IC50 in data set [4] (read-out: IC50 (in mM)) is about 1.9 mM. In data set [1], the half-maximal inhibitory concentration (IC50) worked out at 309 ± 9 µg/mL. Further, in data set [1] (read-out: IC50 (in mM)), the IC50 was about 1 mM. In addition, in data set [5], the “Solubility in Chloroform (39.1)” value is “+ (soluble >100 mg·cm^−3)”, the “Solubility in DMSO (45.1)” value is on record as “+ (soluble >100 mg·cm^−3)”, the “Solubility in Diethyl ether (34.5)” value is given as “+ (soluble >100 mg·cm^−3)” and the “Solubility in Ethanol (51.9)” value is given as “+/− (partially soluble 33–100 mg·cm^−3)”. In data set [5], the “Solubility in Ethyl Acetate (38.1)” value was “+ (soluble >100 mg·cm^−3)”, the “Solubility in Toluene (33.9)” value was “+ (soluble >100 mg·cm^−3)”, the “Solubility in n-Hexane (31.0)” value is on record as “− (insoluble < 33 mg·cm^−3)” and the “Solubility in Water (63.1)” value was “+/− (partially soluble 33–100 mg·cm^−3)”.

Regarding `CCOC(=O)[C@@H](N)C(C)C.O=C(O)c1ccccc1O` [[ValOEt][SA], L-valine ethyl ester salicylate], the “Tonset, the onset” value in data set [2] was found to be 157.6 °C. In addition, the “Solubility in Water at 25 °C” value in data set [3] amounted to 26.070 ± 0.026 g·dm^−3. In data set [4], the “Viability of HaCaT after 48 h Treatment” value is listed as 74 ± 2 and the IC50 is 0.6 ± 0.01 mg/mL. The IC50 in data set [4] (read-out: IC50 (in mM)) is about 2.1 mM. In data set [1], this compound displayed a half-inhibitory concentration (IC50) of 700 ± 8 µg/mL. In data set [1] (read-out: IC50 (in mM)), the IC50 was about 2.5 mM. Besides, in data set [5], the “Solubility in Chloroform (39.1)” value was “+ (soluble >100 mg·cm^−3)”, the “Solubility in DMSO (45.1)” value was “+ (soluble >100 mg·cm^−3)”, the “Solubility in Diethyl ether (34.5)” value is given as “+ (soluble >100 mg·cm^−3)” and the “Solubility in Ethanol (51.9)” value is reported as “+ (soluble >100 mg·cm^−3)”. Also, in data set [5], the “Solubility in Ethyl Acetate (38.1)” value is on record as “+ (soluble >100 mg·cm^−3)”, the “Solubility in Toluene (33.9)” value is on record as “+ (soluble >100 mg·cm^−3)”, the “Solubility in n-Hexane (31.0)” value is reported as “− (insoluble < 33 mg·cm^−3)” and the “Solubility in Water (63.1)” value is “+/− (partially soluble 33–100 mg·cm^−3)”. Besides, the “Level of IL-6 in LPS-stimulated HaCaT” value with IL-6 (setting [6]) was “comparable to those produced by 1 µM SA”.

As to `CCCOC(=O)[C@@H](N)C(C)C.O=C(O)c1ccccc1O` [[ValOPr][SA], L-valine propyl ester salicylate], the “Tonset, the onset” value in data set [2] stood at 177.9 °C. Further, in data set [3], the “Solubility in Water at 25 °C” value came to 21.789 ± 0.024 g·dm^−3. Moreover, in data set [4], the “Viability of HaCaT after 48 h Treatment” value is given as 74 ± 2 and the IC50 is 0.5 ± 0.05 mg/mL. Moreover, the 50% inhibitory concentration (IC50) in data set [4] (read-out: IC50 (in mM)) is about 1.8 mM. The compound also gave a 50% inhibitory concentration (IC50) in data set [1] of 1310 ± 17 µg/mL. Further, in data set [5], the “Solubility in Chloroform (39.1)” value is on record as “+ (soluble >100 mg·cm^−3)”, the “Solubility in DMSO (45.1)” value was “+ (soluble >100 mg·cm^−3)”, the “Solubility in Diethyl ether (34.5)” value is “+ (soluble >100 mg·cm^−3)” and the “Solubility in Ethanol (51.9)” value is on record as “+ (soluble >100 mg·cm^−3)”. Also, in data set [5], the “Solubility in Ethyl Acetate (38.1)” value is reported as “+ (soluble >100 mg·cm^−3)”, the “Solubility in Toluene (33.9)” value is reported as “+ (soluble >100 mg·cm^−3)”, the “Solubility in n-Hexane (31.0)” value is listed as “− (insoluble < 33 mg·cm^−3)” and the “Solubility in Water (63.1)” value is recorded as “+/− (partially soluble 33–100 mg·cm^−3)”.

Turning to `CC(C)OC(=O)[C@@H](N)C(C)C.O=C(O)c1ccccc1O` [[ValOiPr][SA], L-valine isopropyl ester salicylate], the “Tonset, the onset” value in data set [2] came to 163.1 °C. Besides, the “Solubility in Water at 25 °C” value in data set [3] amounted to 18.458 ± 0.018 g·dm^−3. In data set [4], the “Viability of HaCaT after 48 h Treatment” value is listed as 66 ± 2 and the IC50 was determined as 0.9 ± 0.05 mg/mL. The half-inhibitory concentration (IC50) in data set [4] (read-out: IC50 (in mM)) was about 3.1 mM. The same compound gave an IC50 in data set [1] of 658 ± 7 µg/mL. For the same compound, in data set [1] (read-out: IC50 (in mM)), the IC50 was about 2.2 mM. In data set [5], the “Solubility in Chloroform (39.1)” value is reported as “+ (soluble >100 mg·cm^−3)”, the “Solubility in DMSO (45.1)” value was “+ (soluble >100 mg·cm^−3)”, the “Solubility in Diethyl ether (34.5)” value was “+/− (partially soluble 33–100 mg·cm^−3)” and the “Solubility in Ethanol (51.9)” value is listed as “+ (soluble >100 mg·cm^−3)”. Moreover, in data set [5], the “Solubility in Ethyl Acetate (38.1)” value is “+/− (partially soluble 33–100 mg·cm^−3)”, the “Solubility in Toluene (33.9)” value is “+ (soluble >100 mg·cm^−3)”, the “Solubility in n-Hexane (31.0)” value was “− (insoluble < 33 mg·cm^−3)” and the “Solubility in Water (63.1)” value is on record as “+/− (partially soluble 33–100 mg·cm^−3)”. Further, the “Level of IL-6 in LPS-stimulated HaCaT” value with IL-6 (10 μM) is on record as “no effect or negligible inhibition of the IL-6 production”.
